Experimental data reported in ChEMBL document CHEMBL1152667, “Synthesis and radiopharmacological investigation of 3-[4'-[(18)F]fluorobenzylidene]indolin-2-one as possible tyrosine kinase inhibitor” (Bioorg Med Chem, 2009).

Legend:
[1] = target: Vascular endothelial growth factor receptor 2 (Homo sapiens, UniProt P35968); test: Inhibition of FLK1
cells = conditions: Endothelial cell

Chain of Vascular endothelial growth factor receptor 2 (P35968 whole entry): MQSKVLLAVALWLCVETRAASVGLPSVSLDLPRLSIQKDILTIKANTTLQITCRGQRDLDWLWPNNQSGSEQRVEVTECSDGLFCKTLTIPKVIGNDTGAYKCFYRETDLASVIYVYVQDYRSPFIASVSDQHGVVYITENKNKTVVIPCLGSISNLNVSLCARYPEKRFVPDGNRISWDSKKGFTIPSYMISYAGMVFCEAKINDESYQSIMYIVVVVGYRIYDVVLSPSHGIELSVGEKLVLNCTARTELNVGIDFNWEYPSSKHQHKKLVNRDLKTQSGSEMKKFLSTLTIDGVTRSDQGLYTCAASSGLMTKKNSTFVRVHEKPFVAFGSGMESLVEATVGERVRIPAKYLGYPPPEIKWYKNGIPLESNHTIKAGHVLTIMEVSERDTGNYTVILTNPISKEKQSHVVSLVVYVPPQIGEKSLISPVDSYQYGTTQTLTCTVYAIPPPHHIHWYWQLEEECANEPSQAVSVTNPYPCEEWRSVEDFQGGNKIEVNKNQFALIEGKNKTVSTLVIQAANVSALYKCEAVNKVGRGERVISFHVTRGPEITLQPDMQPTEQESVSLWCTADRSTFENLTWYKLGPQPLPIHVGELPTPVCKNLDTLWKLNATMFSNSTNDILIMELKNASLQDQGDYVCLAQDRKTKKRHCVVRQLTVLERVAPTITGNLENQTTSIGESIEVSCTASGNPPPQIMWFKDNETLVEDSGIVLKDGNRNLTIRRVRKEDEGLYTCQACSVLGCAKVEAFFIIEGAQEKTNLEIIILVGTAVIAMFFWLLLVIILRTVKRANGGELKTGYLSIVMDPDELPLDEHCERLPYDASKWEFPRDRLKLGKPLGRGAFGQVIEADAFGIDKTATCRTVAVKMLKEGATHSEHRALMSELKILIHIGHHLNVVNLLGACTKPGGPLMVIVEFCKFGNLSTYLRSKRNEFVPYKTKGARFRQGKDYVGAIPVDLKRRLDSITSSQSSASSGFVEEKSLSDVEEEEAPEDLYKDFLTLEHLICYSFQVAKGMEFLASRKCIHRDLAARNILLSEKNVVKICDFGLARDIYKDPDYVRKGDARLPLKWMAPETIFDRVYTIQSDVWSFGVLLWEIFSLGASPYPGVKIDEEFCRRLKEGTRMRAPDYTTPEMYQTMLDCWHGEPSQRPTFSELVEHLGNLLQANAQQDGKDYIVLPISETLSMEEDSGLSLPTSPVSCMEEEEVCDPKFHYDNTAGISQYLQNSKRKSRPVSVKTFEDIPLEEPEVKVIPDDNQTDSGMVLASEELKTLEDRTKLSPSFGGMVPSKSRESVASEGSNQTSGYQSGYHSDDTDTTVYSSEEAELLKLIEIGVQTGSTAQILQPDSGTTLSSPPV

Row | IC50 [1] [µM] | IC50 (cells) [µM] | SMILES
1 | 9.6 | 5.1 | O=C1Nc2ccccc2/C1=C/c1ccc(F)cc1
2 |  | < 0.8 | Cc1cc(C)c(/C=C2\C(=O)Nc3ccccc32)[nH]1 [SEMAXANIB]
